Measured values as given in the NIST ThermoML archive (doi:10.1016/j.jct.2019.03.007).

Experiment: molar heat capacity at constant pressure
Details: 101.33 kPa, Crystal 1, DSC

O=[N+]([O-])[O-].O=[N+]([O-])[O-].[Ca+2] [calcium nitrate]
Details	molar heat capacity at constant pressure [J/K/mol]
524.78 K	177.54
525 K	175.8
525.78 K	177.66
526 K	175.94
526.78 K	177.78
527 K	175.82
527.78 K	177.91
528 K	176.06
528.78 K	178.03
529 K	176.19
529.78 K	178.15
530 K	176.36
530.78 K	178.27
531 K	176.31
531.78 K	178.39
532 K	176.49
532.78 K	178.51
533 K	176.66
533.78 K	178.64
534 K	176.93
534.78 K	178.76
535 K	177.11
535.78 K	178.88
536 K	177.34
536.78 K	179
537 K	177.34
537.78 K	179.12
538 K	177.42
538.78 K	179.24
539 K	177.46
539.78 K	179.36
540 K	177.51
540.78 K	179.48
541 K	177.41
541.78 K	179.6
542 K	177.7
542.78 K	179.71
543 K	177.98
543.78 K	179.83
544 K	178.12
544.78 K	179.95
545 K	178.25
545.78 K	180.07
546 K	178.24
546.78 K	180.18
547 K	178.5
547.78 K	180.3
548 K	178.69
548.78 K	180.41
549 K	178.65
549.78 K	180.52
550 K	178.93
550.78 K	180.64
551 K	179.14
551.78 K	180.75
552 K	179.27
552.78 K	180.86
553 K	179.3
553.78 K	180.97
554 K	179.36
554.78 K	181.08
555 K	179.38
555.78 K	181.19
556 K	179.42
556.78 K	181.3
557 K	179.62
557.78 K	181.42
558 K	179.86
558.78 K	181.53
559 K	179.79
559.78 K	181.64
560 K	180.01
560.78 K	181.75
561 K	180.29
561.78 K	181.86
562 K	180.36
562.78 K	181.98
563 K	180.34
563.78 K	182.09
564 K	180.52
564.78 K	182.2
565 K	180.58
565.78 K	182.32
566 K	180.69
566.78 K	182.43
567 K	180.68
567.78 K	182.55
568 K	180.69
568.78 K	182.66
569 K	180.72
569.78 K	182.78
570 K	180.95
570.78 K	182.89
571 K	181.01
571.78 K	183
572 K	181.17
572.78 K	183.12
573 K	181.26
573.78 K	183.23
574 K	181.32
574.78 K	183.35
575 K	181.37
575.78 K	183.47
576 K	181.6
576.78 K	183.59
577 K	181.65
577.78 K	183.7
578 K	181.77
578.78 K	183.82
579 K	181.78
579.78 K	183.94
580 K	181.89
580.78 K	184.05
581 K	181.94
581.78 K	184.16
582 K	182.11
582.78 K	184.27
583 K	182.13
583.78 K	184.38
584 K	182.17
584.78 K	184.49
585 K	182.35
585.78 K	184.59
586 K	182.41
586.78 K	184.69
587 K	182.46
587.78 K	184.79
588 K	182.63
